Reference: patent publication US4439606A, “Antiatherosclerotic 1-piperazinecarbonyl compounds” (American Cyanamid Company, priority 1982, dated 1984)

Assays:
aortic sterol content = experiment: Decrease of aortic sterol content without effecting serum sterol in cholesterol-fed cockerels; assay type: in vivo, Day-old Cockerels; set-up: key: Active: Compounds which statistically decrease the aortic sterol content without having an effect on serum sterol are considered to be active; settings: 525 mg. test compound and 20 g. cholesterol per kg. of diet, 14 days
Protocol: The compounds were further tested for their ability to decrease aortic sterol content without effecting serum sterol.
Day-old Cockerels were placed on diets consisting of pullet starter mash supplemented with either 20 g. cholesterol (control group) or 20 g. cholesterol and 525 mg. test compound (drug-treated group) per kg. of diet.
For the control diet, 20 g. of cholesterol was dissolved in 200 ml. of chloroform, mixed into one kg. of pullet starter mash and then the choloroform was removed by evaporation.
For the drug-treatment group, 525 mg. of the test compound was dissolved in 100 ml. of chloroform, mixed into a diet prepared as described above and then the chloroform was evaporated.
The cockerels were housed three per cage and given water and their respective diet ad libitum for 14 days. Blood was collected by cardiac puncture and the serum was saponified [Trinder, P., Analyst, 77, 321 (1952)] and extracted and the cholesterol content determinted [Zlatkis, A., et al., J. Lab Clin Med., 41 486 (1953)]. The aortae were removed, cleaned of adventitial tissue and the sterol content determined according to the above procedures. Compounds which statistically decrease the aortic sterol content without having an effect on serum sterol are considered to be active.

[1] = molecular target: T1, fatty acyl CoA:-cholesterol acyl transferase (ACAT) (Rattus norvegicus, UniProt O70536); experiment: Inhibition of enzymatic esterification of cholesterol (ACAT inhibition), rat adrenal supernatant; assay type: biochemical; settings: final concentration 5.2 μg./ml., 37° C., 30 minutes
T1 construct: The supernatant, containing the microsomal fraction, served as the source of the cholesterol-esterifying enzyme; from tissue; host or cells: rat adrenals, 1000 x g supernatant containing the microsomal fraction
T1 sequence (O70536 1-545): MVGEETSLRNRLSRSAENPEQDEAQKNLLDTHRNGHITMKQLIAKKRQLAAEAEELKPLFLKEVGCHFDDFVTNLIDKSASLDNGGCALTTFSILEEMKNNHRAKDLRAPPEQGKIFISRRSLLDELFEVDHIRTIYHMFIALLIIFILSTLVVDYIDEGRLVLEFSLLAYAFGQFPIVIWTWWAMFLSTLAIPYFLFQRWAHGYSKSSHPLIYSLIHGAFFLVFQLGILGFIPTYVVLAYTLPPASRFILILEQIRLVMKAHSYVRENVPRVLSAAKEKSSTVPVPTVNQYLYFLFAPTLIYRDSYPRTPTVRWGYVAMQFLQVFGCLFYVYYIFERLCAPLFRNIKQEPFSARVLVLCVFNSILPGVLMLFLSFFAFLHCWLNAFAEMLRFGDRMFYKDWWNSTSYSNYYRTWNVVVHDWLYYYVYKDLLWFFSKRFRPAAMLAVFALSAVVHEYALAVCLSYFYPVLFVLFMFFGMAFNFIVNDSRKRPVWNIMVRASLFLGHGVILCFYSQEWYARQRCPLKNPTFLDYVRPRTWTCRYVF
Protocol: The compounds of the present invention were tested for their ability to inhibit the enzymatic esterification of cholesterol according to the procedure of Hashimoto, et al., Life Sci., 12(Part II), 1-12 (1973).
Rat adrenals were homogenized in 0.2 M monobasic potassium phosphate buffer, pH 7.4, and centrifuged at 1000 times gravity for 15 minutes at 5° C. The supernatant, containing the microsomal fraction, served as the source of the cholesterol-esterifying enzyme, fatty acyl CoA:-cholesterol acyl transferase (ACAT). A mixture comprising 50 parts of adrenal supernatant, 10 parts of bovine serum albumin (50 mg./ml.), 3 parts of test compound (final concentration 5.2 μg./ml.) and 500 parts of buffer were preincubated at 37° C. for 10 minutes, following which 20 parts of oleoyl […] were added and the final mixture was incubated at 37° C. for 30 minutes. A control mixture, omitting the test compound, was prepared and treated in the same manner. The lipids from the incubation mixture were extracted into an organic solvent and separated by thin-layer chromatography. The cholesterol ester fraction was counted in a scintillation counter. A statistically significant inhibition of the ACAT enzyme is the criterion for activity.

[2] = test system: serum cholesterol and triglyceride; experiment: Lowering of serum lipid levels, oral administration in diet to rats; assay type: in vivo, male rats COBS, CD, SD strain; settings: 0.1% of test compound by weight in diet, 5 days, vs control rats
Protocol: The compounds were also tested for their ability to lower lipid levels in mammals. The compounds were administered orally admixed with diet to groups of four male rats COBS, CD, SD strain from Charles River Breeding Laboratories, Inc., Wilmington, Mass. A control group of eight rats was maintained on the diet alone; test groups were maintained on the diet plus 0.1% of test compound by weight. After 5 days treatment, serum cholesterol and triglyceride concentrations were determined by direct enzymatic procedures using a Centrifichem® System 400 autoanalyzer (Union Carbide Co.). Cholesterol concentrations were determined by the combined cholesterol esterasecholesterol oxidase procedure of Roeschlau, et al., Zeit. Klin. Chem. Klin. Biochem., 12, 226 (1974). Triglycerides were determined by the combined method of lipase catalyzed hydrolysis of triglycerides to glycerol and free fatty acids [Bucolo, G. and David, H., Clin. Chem., 19, 476 (1973) and Wahlefeld, A. W., in "Methods of Enzymatic Analysis," Vol, 4, Bergmeyer, H. D., Editor, Academic Press, New York, N.Y. (1974), pp. 1831-1835] and the enzymatic oxidation of the glycerol which leads to the production of colored formazan [Stavropoulos, W. S. and Crouch, R. D., Clin. Chem., 20, No. 7, 857 (1974)]. […] The compounds are considered active if they produce a statistically significant lowering of either sterol or triglycerides.

For `O=C(Cc1ccc([N+](=O)[O-])cc1)N1CCN(c2cnccn2)CC1` [1-(p-Nitrophenylacetyl)-4-(2-pyrazinyl)piperazine], the “Result (decrease of aortic sterol content without effect on serum sterol)” value (aortic sterol content) was “Active” and the inhibition at 5.2 µg/mL [1] was 36.4%.
For `O=C(c1ccccc1C(F)(F)F)N1CCN(c2cnccn2)CC1` [1-(2-Pyrazinyl)-4-(α,α,α-trifluoro-o-toluoyl)piperazine], the “Result (decrease of aortic sterol content without effect on serum sterol)” value (aortic sterol content) was “Active”.
For `O=C(Nc1c(Cl)cccc1Cl)N1CCN(c2cnccn2)CC1` [2',6'-Dichloro-4-(2-pyrazinyl)-1-piperazinecarboxanilide], the “Result (decrease of aortic sterol content without effect on serum sterol)” value (aortic sterol content) was “Active”.
For `O=C(Cc1ccc(Cl)c(Cl)c1)N1CCN(c2cnccn2)CC1` [1-(3,4-Dichlorophenylacetyl)-4-(2-pyrazinyl)piperazine], the “Result (decrease of aortic sterol content without effect on serum sterol)” value (aortic sterol content) was “Active” and the inhibition at 5.2 µg/mL [1] was 38.3%.
In the case of `O=C(Cc1ccccc1)N1CCN(c2ccccc2)CC1` [1-phenyl-4-phenylacetylpiperazine, 1-Phenyl-4-phenylacetylpiperazine], the “Result (decrease of aortic sterol content without effect on serum sterol)” value (aortic sterol content) is reported as “Active” and the inhibition at 5.2 µg/mL [1] is reported as 34.6%.
In the case of `Cc1ccc(CC(=O)N2CCN(c3cnccn3)CC2)cc1` [1-(2-Pyrazinyl)-4-(p-tolylacetyl)piperazine], the “Result (decrease of aortic sterol content without effect on serum sterol)” value (aortic sterol content) is reported as “Active” and the “% Lowering of Serum Triglycerides” value [2] is reported as 49%.
